In general, inhibition refers to the percentage by which the read-out fell short of the control. For orientation: pIC50 means the IC50 on a negative log10 scale, so that one unit is a factor of ten. Low values mean a large IC50, high ones a small IC50.

For test [1], the target named is T1, NAD-dependent protein deacylase sirtuin-6 (Homo sapiens, UniProt Q8N6T7). Nature of the test: Inhibition of human SIRT6 (1 to 294 residues) expressed in Escherichia coli Rosetta (DE3) at 250 uM using H3K9AcWW as substrate preincubated for 15 mins followed by substrate addition measured after 1 hr by HPLC analysis relative to control.
Test [2] concerns the target T2, NAD-dependent protein deacetylase sirtuin-2 (Homo sapiens) (UniProt Q8IXJ6).
T2 sequence (whole entry): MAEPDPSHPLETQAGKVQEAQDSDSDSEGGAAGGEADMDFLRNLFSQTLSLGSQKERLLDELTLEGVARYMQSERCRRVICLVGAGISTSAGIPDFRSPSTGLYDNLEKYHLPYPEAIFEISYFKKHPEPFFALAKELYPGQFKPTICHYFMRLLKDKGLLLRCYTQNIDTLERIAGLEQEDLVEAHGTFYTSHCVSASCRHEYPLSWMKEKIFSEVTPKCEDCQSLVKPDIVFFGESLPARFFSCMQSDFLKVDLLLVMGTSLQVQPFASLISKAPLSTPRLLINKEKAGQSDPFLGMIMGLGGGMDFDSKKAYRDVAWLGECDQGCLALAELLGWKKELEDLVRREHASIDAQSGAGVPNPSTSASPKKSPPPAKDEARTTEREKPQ
The experiment in a line: Inhibition of human N-terminal His6-SUMO-tagged SIRT2 (38 to 356 residues) expressed in Escherichia coli BL21 at 250 uM using H3K9AcWW as substrate preincubated for 15 mins followed by substrate addition measured after 1 hr by HPLC analysis relative to control.

Test [3] has as its target T3, NAD-dependent protein deacetylase sirtuin-1 (Homo sapiens, UniProt Q96EB6).
T3 sequence (Q96EB6 whole entry): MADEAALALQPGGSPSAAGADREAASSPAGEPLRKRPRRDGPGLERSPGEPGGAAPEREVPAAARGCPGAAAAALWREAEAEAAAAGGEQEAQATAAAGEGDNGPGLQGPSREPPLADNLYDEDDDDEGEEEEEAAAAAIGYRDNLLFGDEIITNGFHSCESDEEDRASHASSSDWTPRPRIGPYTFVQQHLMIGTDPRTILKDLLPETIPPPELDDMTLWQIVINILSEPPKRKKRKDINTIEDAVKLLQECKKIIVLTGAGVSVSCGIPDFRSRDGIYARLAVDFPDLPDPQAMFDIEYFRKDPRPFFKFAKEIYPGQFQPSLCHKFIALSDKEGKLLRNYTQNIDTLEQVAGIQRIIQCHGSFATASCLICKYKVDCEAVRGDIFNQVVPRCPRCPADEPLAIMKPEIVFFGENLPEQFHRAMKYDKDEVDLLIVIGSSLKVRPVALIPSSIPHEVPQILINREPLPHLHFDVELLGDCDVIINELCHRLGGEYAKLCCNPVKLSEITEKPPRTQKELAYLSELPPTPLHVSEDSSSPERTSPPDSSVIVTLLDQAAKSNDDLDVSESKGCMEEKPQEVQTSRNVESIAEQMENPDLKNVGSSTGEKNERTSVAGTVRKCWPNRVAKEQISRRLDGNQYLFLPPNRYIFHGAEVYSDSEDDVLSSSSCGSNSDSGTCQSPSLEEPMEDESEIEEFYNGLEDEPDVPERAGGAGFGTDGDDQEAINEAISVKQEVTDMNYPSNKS
Nature of the test: Inhibition of human SIRT1 expressed in Escherichia coli BL21 using H3K9AcWW as substrate preincubated for 15 mins followed by substrate addition measured after 1 hr by HPLC analysis.

Test [4] has as its target T4, NAD-dependent protein deacetylase sirtuin-1 (Homo sapiens) (UniProt Q96EB6).
T4 sequence (whole entry): T3 sequence (Q96EB6 whole entry)
Nature of the test: Inhibition of human SIRT1 expressed in Escherichia coli BL21 at 250 uM using H3K9AcWW as substrate preincubated for 15 mins followed by substrate addition measured after 1 hr by HPLC analysis relative to control.

The species entered for test [5] is Homo sapiens. The experiment in a line: Selectivity ratio of IC50 for human SIRT1 expressed in Escherichia coli BL21 to IC50 for human N-terminal His6-SUMO-tagged SIRT2 (38 to 356 residues) expressed in Escherichia coli BL21.
Test [6] deals with T5, NAD-dependent protein deacylase sirtuin-5, mitochondrial (Homo sapiens, UniProt Q9NXA8). Nature of the test: Inhibition of human SIRT5 expressed in Escherichia coli BL21 using H3K9AcWW as substrate preincubated for 15 mins followed by substrate addition measured after 1 hr by HPLC analysis.
Target sequence in this assay (Q9NXA8 whole entry, the tested form may be a part): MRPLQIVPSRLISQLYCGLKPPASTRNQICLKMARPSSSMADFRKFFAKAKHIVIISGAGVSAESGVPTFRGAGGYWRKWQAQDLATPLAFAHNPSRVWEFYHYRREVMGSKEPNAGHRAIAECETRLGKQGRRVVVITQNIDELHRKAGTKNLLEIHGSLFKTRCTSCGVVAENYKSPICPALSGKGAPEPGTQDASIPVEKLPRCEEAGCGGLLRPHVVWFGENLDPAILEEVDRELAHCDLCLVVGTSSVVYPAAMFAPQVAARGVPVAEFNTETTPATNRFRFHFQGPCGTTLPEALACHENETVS
The species named for test [7] is Homo sapiens. The experiment in a line: Selectivity ratio of IC50 for human SIRT6 (1 to 294 residues) expressed in Escherichia coli Rosetta (DE3) to human N-terminal His6-SUMO-tagged SIRT2 (38 to 356 residues) expressed in Escherichia coli BL21.
In test [8] the target is T5, NAD-dependent protein deacylase sirtuin-5, mitochondrial. Nature of the test: Inhibition of human SIRT5 expressed in Escherichia coli BL21 at 250 uM using H3K9AcWW as substrate preincubated for 15 mins followed by substrate addition measured after 1 hr by HPLC analysis relative to control.
Target sequence in this assay (Q9NXA8 37-310 limits assumed): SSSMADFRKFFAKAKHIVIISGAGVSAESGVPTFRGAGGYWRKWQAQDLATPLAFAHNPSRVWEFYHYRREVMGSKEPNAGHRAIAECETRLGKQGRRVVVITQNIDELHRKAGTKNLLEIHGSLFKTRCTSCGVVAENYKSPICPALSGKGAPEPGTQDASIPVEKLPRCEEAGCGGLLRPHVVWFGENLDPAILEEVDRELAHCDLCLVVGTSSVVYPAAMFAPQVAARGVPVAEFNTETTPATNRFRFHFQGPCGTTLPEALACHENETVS
Test [9] has as its target T6, NAD-dependent protein deacetylase sirtuin-3, mitochondrial (Homo sapiens, UniProt Q9NTG7).
T6 sequence (Q9NTG7 whole entry): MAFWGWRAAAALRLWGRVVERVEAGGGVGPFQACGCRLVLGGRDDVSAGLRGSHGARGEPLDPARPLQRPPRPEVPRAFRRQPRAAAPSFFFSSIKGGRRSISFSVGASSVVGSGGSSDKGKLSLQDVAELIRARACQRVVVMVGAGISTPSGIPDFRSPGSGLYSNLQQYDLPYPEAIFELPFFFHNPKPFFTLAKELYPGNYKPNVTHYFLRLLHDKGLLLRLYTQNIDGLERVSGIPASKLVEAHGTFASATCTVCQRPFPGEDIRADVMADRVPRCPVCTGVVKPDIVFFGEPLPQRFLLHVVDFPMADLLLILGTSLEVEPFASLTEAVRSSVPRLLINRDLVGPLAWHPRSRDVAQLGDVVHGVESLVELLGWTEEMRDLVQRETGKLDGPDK
Nature of the test: Inhibition of human SIRT3 expressed in Escherichia coli BL21 using H3K9AcWW as substrate preincubated for 15 mins followed by substrate addition measured after 1 hr by HPLC analysis.

Test [10] has as its target T1, NAD-dependent protein deacylase sirtuin-6. The experiment in a line: Inhibition of human SIRT6 (1 to 294 residues) expressed in Escherichia coli Rosetta (DE3) using H3K9AcWW as substrate preincubated for 15 mins followed by substrate addition measured after 1 hr by HPLC analysis.
Test [11] has as its target T7, NAD-dependent protein deacetylase sirtuin-2 (Homo sapiens, UniProt Q8IXJ6).
T7 sequence (Q8IXJ6 whole entry): T2 sequence (whole entry)
Nature of the test: Inhibition of human N-terminal His6-SUMO-tagged SIRT2 (38 to 356 residues) expressed in Escherichia coli BL21 using H3K9AcWW as substrate preincubated for 15 mins followed by substrate addition measured after 1 hr by HPLC analysis.

The species named for test [12] is Homo sapiens. The experiment in a line: Selectivity ratio of IC50 for human SIRT3 expressed in Escherichia coli BL21 to IC50 for human N-terminal His6-SUMO-tagged SIRT2 (38 to 356 residues) expressed in Escherichia coli BL21.
Test [13] deals with T2, NAD-dependent protein deacetylase sirtuin-2 (Homo sapiens). The experiment in a line: Competitive inhibition of human N-terminal His6-SUMO-tagged SIRT2 (38 to 356 residues) expressed in Escherichia coli BL21 at 5 to 10 uM using H3K9AcWW as substrate assessed as increase in substrate Km preincubated for 15 mins followed by substrate addition measured after 1 hr by double-reciprocal plot analysis.

The species named for test [14] is Homo sapiens. The experiment in a line: Selectivity ratio of IC50 for human SIRT5 expressed in Escherichia coli BL21 to IC50 for human N-terminal His6-SUMO-tagged SIRT2 (38 to 356 residues) expressed in Escherichia coli BL21.

pIC50: −log10 of the molar value. Calls of active or inactive are those of the source. No cut-off for these calls is given here. Residues, ends and D or L forms follow the SMILES beside them. *: point of attachment. X2 = CCCCCCCCCCCCCNC(=O)CCC*; X1 = CCCCCCCCCCNC(=O)CCC*

T1 sequence (Q8N6T7 whole entry, the tested form may be a part): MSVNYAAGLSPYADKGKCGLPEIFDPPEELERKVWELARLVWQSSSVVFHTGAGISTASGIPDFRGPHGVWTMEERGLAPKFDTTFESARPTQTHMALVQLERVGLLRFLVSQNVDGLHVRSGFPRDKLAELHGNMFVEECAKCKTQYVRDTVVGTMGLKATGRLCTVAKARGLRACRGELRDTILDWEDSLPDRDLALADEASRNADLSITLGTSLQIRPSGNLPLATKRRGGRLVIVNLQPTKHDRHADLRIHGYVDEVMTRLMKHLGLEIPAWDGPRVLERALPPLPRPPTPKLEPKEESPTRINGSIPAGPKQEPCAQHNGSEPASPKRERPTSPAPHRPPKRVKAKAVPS

Take `CCCCCCCCCCNC(=O)CCCSC[C@H](NC(=O)[C@H](CCCNC(=N)N)NC(=O)[C@H](C)NC(=O)[C@@H](NC(=O)[C@H](CCC(N)=O)NC(=O)[C@@H](N)CCCCN)[C@@H](C)O)C(=O)N[C@@H](CO)C(=O)N[C@H](C(=O)NCC(=O)NCC(=O)N[C@@H](CCCCN)C(=O)O)[C@@H](C)O` (H-KQTARC(X1)STGGK-OH): the inhibition in [1] was 41%; in [2], 95%; in test [4], 60%. Moreover, the negative-log IC50 (pIC50) is below 3.70 in test [3]; below 3.30 in [6]; below 3.30 in [9]; below 3.60 in test [10]; 4.70 in [11]. For the same compound, the Ratio IC50 in the test listed under Homo sapiens [5], in the test filed under Homo sapiens [7], in the test filed under Homo sapiens [12] and in the test filed under Homo sapiens [14] was above 10 in each case. Moreover, the inhibition entry in test [8] is “inactive”. The inhibition result in test [13] was “Active”.

`CCCCCCCCCCCCCNC(=O)CCCSC[C@H](NC(=O)[C@H](CCCNC(=N)N)NC(=O)[C@H](C)NC(=O)[C@@H](NC(=O)[C@H](CCC(N)=O)NC(=O)[C@@H](N)CCCCN)[C@@H](C)O)C(=O)N[C@@H](CO)C(=O)N[C@H](C(=O)NCC(=O)NCC(=O)N[C@@H](CCCCN)C(=O)O)[C@@H](C)O` (H-KQTARC(X2)STGGK-OH): the inhibition in test [1] worked out at 54%; in test [2], 87%; in test [4] it was 67%. For the same compound, the pIC50 in test [3] is below 3.70; in test [6] it was below 4.30; in test [9], below 4.30; in test [10], below 4.70; in [11] it was 4.46. In addition, the Ratio IC50 in the test filed under Homo sapiens [5], in the test listed under Homo sapiens [7], in the test filed under Homo sapiens [12] and in the test listed under Homo sapiens [14] was 10 each time. Also, the inhibition result in [8] is “inactive”.

Source of the values: ChEMBL document CHEMBL4118276, “The mimics of Nε-acyl-lysine derived from cysteine as sirtuin inhibitors” (Bioorg Med Chem Lett, 2018).
